Active and inactive are the calls of the source. The calls are words filed in the database; no cut-off is given here.
How the values were obtained:
[1] = target: Cyclin-dependent kinase 7 (Homo sapiens) (UniProt P50613); assay: Hydrophobic-tagging degradation activity at CDK7 in human MDA-MB-468 cells assessed as degradation of CDK7 at 0.625 to 10 uM incubated for 24 hrs by Western blotting analysis; type: cell-based; conditions: dose 0.625-10 µM
[2] = target: Cyclin-dependent kinase 19 (Homo sapiens) (UniProt Q9BWU1); assay: Hydrophobic-tagging degradation activity at CDK19 in human MDA-MB-468 cells assessed as degradation of CDK19 protein at 5 uM incubated for 12 hrs by DIA-based proteomic analysis; type: cell-based
[3] = target: T1, Cyclin-dependent kinase 8 (Homo sapiens, UniProt P49336); assay: Hydrophobic-tagging degradation activity at CDK8 in human MDA-MB-468 cells assessed as degradation of CDK8 protein at 5 uM incubated for 12 hrs by DIA-based proteomic analysis; type: cell-based
[4] = target: T1, Cyclin-dependent kinase 8; assay: Hydrophobic-tagging degradation activity at CDK8 in human MDA-MB-468 cells assessed as downregulation of SMAD2 protein expression at 5 uM incubated for 12 hrs by DIA-based proteomic analysis; type: cell-based
MDA-MB-231 [5] = assay: Antiproliferative activity against human MDA-MB-231 cells assessed as inhibition of cell proliferation incubated for 4 days by Celltiter glo luminescent assay; type: functional, cell-based; conditions: MDA-MB-231, 96 h
[6] = target: T2, CDK8/Cyclin C (Homo sapiens) (UniProt P49336+P24863); assay: Hydrophobic-tagging degradation activity at CDK8/Cyclin C in human MDA-MB-468 cells assessed as downregulation of Rb phosphorylation at 2 to 8 uM incubated for 24 hrs by Western blotting analysis; type: cell-based; conditions: dose 2-8 µM
HCT-116 = assay: Antiproliferative activity against human HCT-116 cells assessed as reduction in cell viability incubated for 4 days by Celltiter glo luminescent assay; type: functional, cell-based; conditions: time 4.0 day
[7] = target: Cyclin-dependent kinase 19 (Homo sapiens) (UniProt Q9BWU1); assay: Hydrophobic-tagging degradation activity at CDK19 in human MDA-MB-468 cells assessed as degradation of CDK19 at 0.625 to 10 uM incubated for 24 hrs by Western blotting analysis; type: cell-based; conditions: dose 0.625-10 µM
Cyclin-T1 (Homo sapiens) = Cyclin-T1 (Homo sapiens) (UniProt O60563); assay: PROTAC activity at Cyclin T1 in human MDA-MB-468 cells assessed as degradation of Cyclin T1 at 0.625 to 10 uM incubated for 24 hrs by Western blotting analysis; type: cell-based; conditions: dose 0.625-10 µM
[8] = target: T2, CDK8/Cyclin C (Homo sapiens); assay: Hydrophobic-tagging degradation activity at CDK8/Cyclin C in human MDA-MB-468 cells assessed as protein degradation at 5 uM incubated for 2 to 72 hrs by Western blotting analysis; type: cell-based; conditions: time 2-72 hrs, TDE = time-dependent effect
[9] = target: T2, CDK8/Cyclin C (Homo sapiens); assay: Hydrophobic-tagging degradation activity at CDK8/Cyclin C in human MDA-MB-468 cells assessed as downregulation of RET gene expression level at 4 uM incubated for 24 hrs by qPT-PCR analysis; type: cell-based
[10] = target: Cyclin-dependent kinase 6 (Homo sapiens) (UniProt Q00534); assay: PROTAC activity at CDK6 in human MDA-MB-468 cells assessed as degradation of CDK6 at 0.625 to 10 uM incubated for 24 hrs by Western blotting analysis; type: cell-based; conditions: dose 0.625-10 µM
[11] = target: T2, CDK8/Cyclin C (Homo sapiens); assay: Hydrophobic-tagging degradation activity at CDK8/Cyclin C in human MDA-MB-468 cells assessed as downregulation of d EAPP expression level at 4 uM incubated for 24 hrs by proteomic analysis; type: cell-based
Cyclin-H (Homo sapiens) = Cyclin-H (Homo sapiens) (UniProt P51946); assay: PROTAC activity at Cyclin H in human MDA-MB-468 cells assessed as degradation of Cyclin H at 0.625 to 10 uM incubated for 24 hrs by Western blotting analysis; type: cell-based; conditions: dose 0.625-10 µM
[12] = target: T2, CDK8/Cyclin C (Homo sapiens); assay: Hydrophobic-tagging degradation activity at CDK8/Cyclin C in human MDA-MB-468 cells assessed as downregulation of […] phosphorylation at Tyr701 residue at 2 to 8 uM incubated for 24 hrs by Western blotting analysis; type: cell-based; conditions: dose 2-8 µM
MDA-MB-468 [13] = assay: Inhibition of colony formation in human MDA-MB-468 cells assessed as reduction in cell colony number at 1.25 to 20 uM incubated for 3 days by crystal violet staining based assay; type: functional; conditions: dose 1.25-20 µM, time 3.0 day
[14] = target: T2, CDK8/Cyclin C (Homo sapiens); assay: Hydrophobic-tagging degradation activity at CDK8/Cyclin C in human MDA-MB-468 cells assessed as downregulation of STAT1 phosphorylation at Ser727 residue at 2 to 8 uM incubated for 24 hrs by Western blotting analysis; type: cell-based; conditions: dose 2-8 µM
[15] = target: T2, CDK8/Cyclin C (Homo sapiens); assay: Hydrophobic-tagging degradation activity at CDK8/Cyclin C in human MDA-MB-468 cells assessed as downregulation of E2F gene expression level at 4 uM incubated for 24 hrs by qPT-PCR analysis; type: cell-based
[16] = target: T2, CDK8/Cyclin C (Homo sapiens); assay: Hydrophobic-tagging degradation activity at CDK8/Cyclin C in human MDA-MB-468 cells assessed as effect on mRNA expression level at 4 uM incubated for 24 hrs by […] analysis; type: cell-based
Cyclin-C (Homo sapiens) = Cyclin-C (Homo sapiens) (UniProt P24863); assay: PROTAC activity at Cyclin C in human MDA-MB-468 cells assessed as degradation of Cyclin C at 0.625 to 10 uM incubated for 24 hrs by Western blotting analysis; type: cell-based; conditions: dose 0.625-10 µM
[17] = target: T2, CDK8/Cyclin C (Homo sapiens); assay: Hydrophobic-tagging degradation activity at CDK8/Cyclin C in human MDA-MB-468 cells assessed as downregulation of TERT gene expression level at 4 uM incubated for 24 hrs by qPT-PCR analysis; type: cell-based
MDA-MB-231 [18] = assay: Antiproliferative activity against human MDA-MB-231 cells assessed as reduction in cell viability incubated for 4 days by Celltiter glo luminescent assay; type: functional, cell-based; conditions: time 4.0 day
MDA-MB-468 [19] = assay: Antiproliferative activity against human MDA-MB-468 cells assessed as inhibition of cell proliferation incubated for 4 days by Celltiter glo luminescent assay; type: functional, cell-based; conditions: MDA-MB-468, 96 h
[20] = target: T1, Cyclin-dependent kinase 8; assay: Hydrophobic-tagging degradation activity at CDK8 in human MDA-MB-468 cells assessed as degradation of CDK8 incubated for 48 hrs by Western blotting analysis; type: cell-based
[21] = target: T2, CDK8/Cyclin C (Homo sapiens); assay: Hydrophobic-tagging degradation activity at CDK8/Cyclin C in human HCT-116 cells assessed as protein degradation at 0.75 to 20 uM incubated for 48 hrs by Western blotting analysis; type: cell-based; conditions: dose 0.75-20 µM
[22] = target: T1, Cyclin-dependent kinase 8; assay: Hydrophobic-tagging degradation activity at CDK8 in human MDA-MB-468 cells assessed as downregulation of EAPP protein expression at 5 uM incubated for 12 hrs by DIA-based proteomic analysis; type: cell-based
Cyclin-K (Homo sapiens) = Cyclin-K (Homo sapiens) (UniProt O75909); assay: PROTAC activity at Cyclin K in human MDA-MB-468 cells assessed as degradation of Cyclin K at 0.625 to 10 uM incubated for 24 hrs by Western blotting analysis; type: cell-based; conditions: dose 0.625-10 µM
[23] = target: T2, CDK8/Cyclin C (Homo sapiens); assay: Hydrophobic-tagging degradation activity at CDK8/Cyclin C in human MDA-MB-468 cells assessed as downregulation of STAT1 phosphorylation at Ser727 residue at 4 uM incubated for 24 hrs by Western blotting analysis; type: cell-based
Cyclin-C = Cyclin-C (Homo sapiens, UniProt P24863); assay: PROTAC activity at Cyclin C in human MDA-MB-468 cells assessed as degradation of Cyclin C incubated for 48 hrs by Western blotting analysis; type: cell-based
Cyclin-C, sequence (P24863 whole entry): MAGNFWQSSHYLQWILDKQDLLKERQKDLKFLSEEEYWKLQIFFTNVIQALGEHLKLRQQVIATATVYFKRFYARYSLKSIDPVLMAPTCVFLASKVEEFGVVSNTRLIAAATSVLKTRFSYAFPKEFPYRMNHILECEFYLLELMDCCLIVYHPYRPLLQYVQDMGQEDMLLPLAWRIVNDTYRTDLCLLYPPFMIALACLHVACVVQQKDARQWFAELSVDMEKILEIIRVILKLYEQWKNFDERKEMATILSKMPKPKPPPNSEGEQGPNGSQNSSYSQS

T1 sequence (P49336 whole entry): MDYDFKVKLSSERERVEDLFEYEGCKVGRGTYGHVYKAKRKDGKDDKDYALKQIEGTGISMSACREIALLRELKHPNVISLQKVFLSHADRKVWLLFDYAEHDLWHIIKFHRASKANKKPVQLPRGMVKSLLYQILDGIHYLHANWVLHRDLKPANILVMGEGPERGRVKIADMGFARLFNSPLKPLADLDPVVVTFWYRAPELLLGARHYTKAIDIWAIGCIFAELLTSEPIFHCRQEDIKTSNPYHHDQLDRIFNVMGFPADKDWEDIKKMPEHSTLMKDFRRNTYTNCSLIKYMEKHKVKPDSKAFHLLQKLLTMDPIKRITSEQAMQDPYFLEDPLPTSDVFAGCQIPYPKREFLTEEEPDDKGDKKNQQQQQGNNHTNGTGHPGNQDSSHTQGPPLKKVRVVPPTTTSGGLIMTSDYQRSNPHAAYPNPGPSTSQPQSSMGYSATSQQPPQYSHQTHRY
Cyclin-dependent kinase 19 (Homo sapiens), sequence (Q9BWU1 whole entry): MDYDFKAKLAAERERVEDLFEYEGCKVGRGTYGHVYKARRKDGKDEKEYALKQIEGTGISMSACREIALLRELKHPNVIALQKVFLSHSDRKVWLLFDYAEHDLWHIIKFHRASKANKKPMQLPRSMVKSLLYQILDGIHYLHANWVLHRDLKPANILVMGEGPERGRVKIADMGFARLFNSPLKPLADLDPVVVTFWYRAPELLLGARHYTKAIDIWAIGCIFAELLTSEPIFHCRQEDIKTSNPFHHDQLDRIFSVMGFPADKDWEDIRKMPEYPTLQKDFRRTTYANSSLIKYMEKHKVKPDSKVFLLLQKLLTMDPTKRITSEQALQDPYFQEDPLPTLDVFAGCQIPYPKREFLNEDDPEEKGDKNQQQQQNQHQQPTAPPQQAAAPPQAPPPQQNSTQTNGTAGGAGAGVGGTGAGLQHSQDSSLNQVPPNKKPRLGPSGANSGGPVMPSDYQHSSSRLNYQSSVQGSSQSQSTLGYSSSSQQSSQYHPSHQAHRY
Cyclin-dependent kinase 6 (Homo sapiens), sequence (Q00534 whole entry): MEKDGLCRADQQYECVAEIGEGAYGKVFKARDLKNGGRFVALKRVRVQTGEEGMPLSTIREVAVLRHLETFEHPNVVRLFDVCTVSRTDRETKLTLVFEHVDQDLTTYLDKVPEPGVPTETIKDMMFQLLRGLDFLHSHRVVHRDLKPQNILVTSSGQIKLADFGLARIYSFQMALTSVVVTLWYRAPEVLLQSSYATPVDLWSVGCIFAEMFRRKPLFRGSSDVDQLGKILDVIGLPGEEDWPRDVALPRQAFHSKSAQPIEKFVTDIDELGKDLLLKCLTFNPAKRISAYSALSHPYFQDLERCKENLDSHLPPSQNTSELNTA
Cyclin-C (Homo sapiens), sequence (P24863 whole entry): as the sequence (P24863 whole entry) above
Cyclin-T1 (Homo sapiens), sequence (O60563 whole entry): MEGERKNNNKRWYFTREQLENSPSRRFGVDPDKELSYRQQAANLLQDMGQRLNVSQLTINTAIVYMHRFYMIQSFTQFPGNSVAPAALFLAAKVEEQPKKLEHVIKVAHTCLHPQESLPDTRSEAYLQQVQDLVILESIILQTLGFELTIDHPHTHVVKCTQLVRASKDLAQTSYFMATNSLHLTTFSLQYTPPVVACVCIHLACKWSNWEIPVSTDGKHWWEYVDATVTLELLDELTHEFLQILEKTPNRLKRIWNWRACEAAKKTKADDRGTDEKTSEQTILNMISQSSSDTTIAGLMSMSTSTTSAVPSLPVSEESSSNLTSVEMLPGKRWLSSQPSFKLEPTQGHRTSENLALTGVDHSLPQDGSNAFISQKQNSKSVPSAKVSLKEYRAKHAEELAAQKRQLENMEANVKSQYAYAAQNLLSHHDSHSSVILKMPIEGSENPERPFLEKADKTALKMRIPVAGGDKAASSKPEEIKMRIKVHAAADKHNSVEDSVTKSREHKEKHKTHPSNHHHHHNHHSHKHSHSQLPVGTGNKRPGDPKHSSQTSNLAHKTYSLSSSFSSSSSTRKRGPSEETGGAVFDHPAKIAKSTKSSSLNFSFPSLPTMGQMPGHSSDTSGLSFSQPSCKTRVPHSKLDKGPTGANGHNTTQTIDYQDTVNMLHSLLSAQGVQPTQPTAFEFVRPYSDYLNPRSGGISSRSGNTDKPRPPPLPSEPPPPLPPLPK
Cyclin-K (Homo sapiens), sequence (O75909 whole entry): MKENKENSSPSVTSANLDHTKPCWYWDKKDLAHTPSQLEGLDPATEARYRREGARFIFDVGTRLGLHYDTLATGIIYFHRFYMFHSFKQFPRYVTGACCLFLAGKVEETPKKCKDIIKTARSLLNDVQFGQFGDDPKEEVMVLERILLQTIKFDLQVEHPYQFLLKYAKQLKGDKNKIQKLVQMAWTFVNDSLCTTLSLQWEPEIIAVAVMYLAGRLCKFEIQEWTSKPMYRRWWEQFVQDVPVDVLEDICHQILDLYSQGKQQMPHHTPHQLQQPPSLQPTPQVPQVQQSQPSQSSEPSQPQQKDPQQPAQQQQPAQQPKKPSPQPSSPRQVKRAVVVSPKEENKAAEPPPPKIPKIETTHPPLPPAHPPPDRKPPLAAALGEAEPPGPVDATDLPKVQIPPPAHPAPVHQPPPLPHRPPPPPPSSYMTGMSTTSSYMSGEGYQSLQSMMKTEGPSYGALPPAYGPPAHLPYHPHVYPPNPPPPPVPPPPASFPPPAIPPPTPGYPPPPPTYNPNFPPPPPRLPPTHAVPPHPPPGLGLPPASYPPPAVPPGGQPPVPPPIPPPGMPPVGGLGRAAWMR
Cyclin-H (Homo sapiens), sequence (P51946 whole entry): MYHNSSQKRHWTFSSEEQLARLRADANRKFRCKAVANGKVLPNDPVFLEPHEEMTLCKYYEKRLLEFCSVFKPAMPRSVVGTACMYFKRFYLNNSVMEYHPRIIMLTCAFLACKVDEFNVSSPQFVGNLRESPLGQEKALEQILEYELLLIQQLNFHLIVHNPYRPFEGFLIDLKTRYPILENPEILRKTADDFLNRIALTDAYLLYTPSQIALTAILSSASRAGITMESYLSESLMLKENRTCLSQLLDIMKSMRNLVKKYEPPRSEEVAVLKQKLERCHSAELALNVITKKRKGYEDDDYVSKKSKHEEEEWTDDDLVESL
Cyclin-dependent kinase 7 (Homo sapiens), sequence (P50613 whole entry): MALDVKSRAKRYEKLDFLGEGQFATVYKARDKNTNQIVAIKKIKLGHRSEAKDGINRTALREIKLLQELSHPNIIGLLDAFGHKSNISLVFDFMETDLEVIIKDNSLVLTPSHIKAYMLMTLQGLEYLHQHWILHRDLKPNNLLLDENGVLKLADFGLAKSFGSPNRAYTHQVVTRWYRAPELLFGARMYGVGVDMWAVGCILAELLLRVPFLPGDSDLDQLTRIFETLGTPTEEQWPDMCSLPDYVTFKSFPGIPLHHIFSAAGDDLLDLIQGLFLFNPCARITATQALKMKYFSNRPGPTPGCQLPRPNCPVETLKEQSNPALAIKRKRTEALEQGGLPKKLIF

- Activity [1]: inactive
- Activity [2]: inactive
- Activity [3]: Active
- Activity [4]: Active
- IC50 (MDA-MB-231 [5]): 6.22 µM
- Activity [6]: Active
- Activity [7]: inactive
- Activity (Cyclin-T1 (Homo sapiens)): inactive
- Activity [8]: Tde
- Activity [9]: Active
- Activity [10]: inactive
- Activity [11]: Active
- Activity (Cyclin-H (Homo sapiens)): inactive
- Activity [12]: inactive
- Activity [14]: Active
- Activity [15]: Active
- Activity [16]: inactive
- Activity (Cyclin-C (Homo sapiens)): Active
- Activity [17]: Active
- IC50 (MDA-MB-468 [19]): 5.73 µM
- DC50 [20]: 2520 nM
- Activity [21]: Active
- Activity [22]: Active
- Activity (Cyclin-K (Homo sapiens)): inactive
- Activity [23]: Active
- DC50 (Cyclin-C): 2640 nM
Compound: O=C(Cn1cc(-c2ccc(-c3cncc4ccccc34)cc2)cn1)N1CCN(CCCC23CC4CC(CC(C4)C2)C3)CC1
- Activity (HCT-116): Active
- inhibition (MDA-MB-468 [13]): Active
- Activity (MDA-MB-231 [18]): Active

Source: ChEMBL document CHEMBL5380817, “Discovery of LL-K8-22: A Selective, Durable, and Small-Molecule Degrader of the CDK8-Cyclin C Complex” (J Med Chem, 2023)
